Experimental data as given in US11433072B1 (Hikma Pharmaceuticals USA Inc., priority 2021, dated 2022).
Like-named read-outs stand apart in the source and are kept apart here.

How the values were obtained:
[1] = acidic environment; data not shown
[2] = cited from earlier work

For `C=CC(=O)N1CCC[C@@H](n2nc(-c3ccc(Oc4ccccc4)cc3)c3c(N)ncnc32)C1` [ibrutinib, 1-(3R)-3-(4-amino-3-(4-phenoxyphenyl)-1H-pyrazolo[3,4-d]pryimidin-1-yl)prop-2-en-1-one], the Solubility [1] is listed as “higher in an acidic environment”, the Solubility ([2]; HCl at pH 1.2) is listed as “slightly soluble” and the Solubility ([2]; aqueous solutions of pH 4.5-8) is listed as “practically insoluble”.
